The source made the active and inactive calls.
Experiments:
Genome polyprotein = Genome polyprotein (dengue virus type 2, UniProt P29990); assay: Dengue-2 NS5 methyltransferase inhibitors, primary screen, biochemical, confirmation dose response (AID 588689); format: functional
[1] = biological target: FAD-linked sulfhydryl oxidase ALR (Homo sapiens, UniProt P55789); assay: inhibitors of human ALR sulfhydryl oxidase, dose response, biochemical, H2O2 detection, luminescence, cherry-pick (AID 493248)
Chain of FAD-linked sulfhydryl oxidase ALR (P55789 whole entry): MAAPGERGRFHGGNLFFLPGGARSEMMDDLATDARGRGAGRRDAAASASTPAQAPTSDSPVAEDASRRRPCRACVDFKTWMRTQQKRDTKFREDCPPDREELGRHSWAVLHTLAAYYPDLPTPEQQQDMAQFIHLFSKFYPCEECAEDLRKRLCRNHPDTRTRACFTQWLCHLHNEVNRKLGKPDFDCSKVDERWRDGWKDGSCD

[2] = biological target: T1, Short transient receptor potential channel 4 (Mus musculus, UniProt Q9QUQ5); assay: mouse TRPC4 channel inhibitors, dose response, cell-based, HEK293 TRPC4/mu-opioid, Fluo-4 calcium (AID 434942); format: functional;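 further: potency of inhibitors blocking the TRPC4 calcium response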
T1 sequence (Q9QUQ5 whole entry): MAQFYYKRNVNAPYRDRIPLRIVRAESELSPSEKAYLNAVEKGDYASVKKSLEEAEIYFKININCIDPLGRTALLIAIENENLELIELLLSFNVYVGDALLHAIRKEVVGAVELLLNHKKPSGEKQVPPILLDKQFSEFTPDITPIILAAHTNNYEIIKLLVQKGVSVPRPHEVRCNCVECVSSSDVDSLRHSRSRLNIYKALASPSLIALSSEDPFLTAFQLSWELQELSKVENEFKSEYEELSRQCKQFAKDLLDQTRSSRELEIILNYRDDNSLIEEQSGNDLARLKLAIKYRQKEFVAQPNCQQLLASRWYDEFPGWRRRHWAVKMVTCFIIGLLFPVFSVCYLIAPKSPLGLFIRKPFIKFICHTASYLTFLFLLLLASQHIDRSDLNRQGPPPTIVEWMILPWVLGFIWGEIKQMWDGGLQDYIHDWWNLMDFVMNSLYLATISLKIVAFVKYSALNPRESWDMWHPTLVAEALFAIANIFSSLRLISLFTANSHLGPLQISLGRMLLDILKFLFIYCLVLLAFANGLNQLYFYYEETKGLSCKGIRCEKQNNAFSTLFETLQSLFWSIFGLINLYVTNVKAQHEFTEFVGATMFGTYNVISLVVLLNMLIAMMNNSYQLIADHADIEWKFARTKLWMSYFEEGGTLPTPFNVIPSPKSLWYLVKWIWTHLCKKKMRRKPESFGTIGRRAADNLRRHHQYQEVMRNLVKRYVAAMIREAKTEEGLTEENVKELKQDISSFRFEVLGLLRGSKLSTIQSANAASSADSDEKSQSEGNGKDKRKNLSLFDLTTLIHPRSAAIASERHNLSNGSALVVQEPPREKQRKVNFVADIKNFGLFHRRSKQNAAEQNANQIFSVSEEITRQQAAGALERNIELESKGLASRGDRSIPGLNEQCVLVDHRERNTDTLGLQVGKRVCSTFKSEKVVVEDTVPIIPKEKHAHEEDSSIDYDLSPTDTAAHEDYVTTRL

Vero [3] = assay: cells; format: functional, cell-based; details: Chlorocebus sabaeus
[4] = biological target: T2, Alkaline phosphatase, tissue-nonspecific isozyme (Homo sapiens, UniProt P05186); assay: human TNAP enzyme inhibitors, SAR follow-up, biochemical, luminescent, dose response (AID 1056)
T2 sequence (P05186 whole entry): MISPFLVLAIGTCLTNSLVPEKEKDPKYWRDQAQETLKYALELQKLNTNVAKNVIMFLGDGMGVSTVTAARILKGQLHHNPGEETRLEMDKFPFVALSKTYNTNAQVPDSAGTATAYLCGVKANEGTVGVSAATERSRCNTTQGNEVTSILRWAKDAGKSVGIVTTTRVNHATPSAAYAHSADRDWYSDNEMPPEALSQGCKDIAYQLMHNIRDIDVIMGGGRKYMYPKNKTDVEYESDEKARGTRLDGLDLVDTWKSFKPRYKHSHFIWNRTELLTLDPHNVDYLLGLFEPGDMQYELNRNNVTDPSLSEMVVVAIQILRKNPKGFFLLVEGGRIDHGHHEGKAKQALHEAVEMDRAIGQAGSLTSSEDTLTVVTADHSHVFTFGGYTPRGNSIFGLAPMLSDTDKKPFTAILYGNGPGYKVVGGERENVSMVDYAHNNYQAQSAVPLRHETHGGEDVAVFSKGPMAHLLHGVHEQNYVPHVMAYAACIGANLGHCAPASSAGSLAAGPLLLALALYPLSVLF

[5] = biological target: Alkaline phosphatase, placental type (Homo sapiens, UniProt P05187); assay: PLAP enzyme inhibitors, confirmation, biochemical, luminescence (AID 1512); format: functional
Chain of Alkaline phosphatase, placental type (P05187 whole entry): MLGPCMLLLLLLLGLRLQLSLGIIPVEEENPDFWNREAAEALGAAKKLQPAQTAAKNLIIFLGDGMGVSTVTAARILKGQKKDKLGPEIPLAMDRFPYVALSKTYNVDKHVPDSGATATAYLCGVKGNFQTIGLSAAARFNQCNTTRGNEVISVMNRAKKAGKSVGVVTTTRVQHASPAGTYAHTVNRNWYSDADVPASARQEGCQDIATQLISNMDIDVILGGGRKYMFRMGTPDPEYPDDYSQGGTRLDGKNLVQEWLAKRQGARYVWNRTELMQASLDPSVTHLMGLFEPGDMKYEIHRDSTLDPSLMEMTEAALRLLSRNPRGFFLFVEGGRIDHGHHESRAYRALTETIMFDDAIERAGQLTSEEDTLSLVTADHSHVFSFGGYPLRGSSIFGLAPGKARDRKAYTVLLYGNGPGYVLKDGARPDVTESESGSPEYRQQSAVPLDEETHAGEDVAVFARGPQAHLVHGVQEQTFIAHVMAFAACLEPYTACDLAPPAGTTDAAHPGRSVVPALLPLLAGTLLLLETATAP

INS1 = assay: beta cell apoptosis inhibitors, cytokine rescue, dose response, luminescence, retest (AID 449756); format: functional, cell-based; details: Rattus norvegicus;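 further: cell death triggered by IL-1 beta plus TNF-alpha plus IFN-gamma mixture; protective hits raise ATP signal compared with cytokine alone wells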
[6] = A cytotoxicity screen of small molecule inhibitors of the PhoP region in Salmonella typhi identified in the primary screen. [Related pubchem assays: 1850, 1864, 1985 ]; format: functional
Escherichia coli = assay: microbe, parasite or virus in culture
[7] = inhibitors of intracellular T. cruzi replication, confirmation, NIH3T3 host cells, beta-gal luminescence (AID 2044); format: functional, cell-based;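 further: intracellular parasites grown in NIH/3T3 mouse fibroblasts as host cells; luminescent beta-galactosidase reporter signal from transgenic T. cruzi replicating inside host cells; inhibitors lower the luminescence signal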
[8] = cytotoxicity toward NIH3T3 fibroblasts, dose response, counter-screen, cell-based, ATP luminescence, mouse fibroblasts (AID 2010); format: functional;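 further: cells exposed to compound for about 90 hours before reading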
Vero [9] = assay: cells; format: functional; details: Chlorocebus sabaeus
[10] = cytotoxicity in HEK-293T cells, dose response, cytotoxicity control for TCR NF-kB inhibitor project, luminescence, T-cell screen hits (AID 489026); format: functional, cell-based;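 further: cells exposed to compound about 14 hours before the viability readout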

Chain of Genome polyprotein (P29990 2492-3391 limits assumed): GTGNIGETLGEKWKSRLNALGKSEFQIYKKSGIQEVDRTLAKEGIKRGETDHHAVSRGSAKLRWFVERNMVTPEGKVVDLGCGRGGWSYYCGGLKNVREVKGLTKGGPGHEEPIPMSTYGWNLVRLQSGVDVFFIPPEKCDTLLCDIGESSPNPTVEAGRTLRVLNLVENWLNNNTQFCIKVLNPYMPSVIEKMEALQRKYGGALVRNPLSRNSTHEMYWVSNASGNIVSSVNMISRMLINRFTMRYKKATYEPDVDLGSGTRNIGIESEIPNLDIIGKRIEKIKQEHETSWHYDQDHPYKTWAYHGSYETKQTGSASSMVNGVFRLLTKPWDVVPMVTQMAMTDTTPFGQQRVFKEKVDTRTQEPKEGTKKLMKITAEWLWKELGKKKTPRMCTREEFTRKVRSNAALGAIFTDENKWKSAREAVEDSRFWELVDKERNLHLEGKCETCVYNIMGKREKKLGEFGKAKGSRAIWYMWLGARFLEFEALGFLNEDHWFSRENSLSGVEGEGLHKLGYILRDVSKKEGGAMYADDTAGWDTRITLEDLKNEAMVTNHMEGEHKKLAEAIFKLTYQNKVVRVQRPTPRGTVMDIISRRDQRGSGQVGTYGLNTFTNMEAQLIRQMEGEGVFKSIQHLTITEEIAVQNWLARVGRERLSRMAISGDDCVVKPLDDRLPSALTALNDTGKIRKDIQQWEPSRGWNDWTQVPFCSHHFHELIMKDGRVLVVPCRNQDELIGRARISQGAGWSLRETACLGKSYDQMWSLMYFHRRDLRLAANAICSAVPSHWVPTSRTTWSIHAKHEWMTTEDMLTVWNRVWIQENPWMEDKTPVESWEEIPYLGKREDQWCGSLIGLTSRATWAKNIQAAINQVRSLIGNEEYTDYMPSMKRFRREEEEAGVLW

In the case of `COc1cccc(/C=C2\SC(=S)N(NS(=O)(=O)c3ccc(C)cc3)C2=O)c1OC`, the IC50 (Genome polyprotein) is reported as 36.2 µM (active), the AC50 [1] is reported as 9.05 µM (active) and the EC50 [2] is reported as 8.41 µM (active).

In the case of `CC(=O)Nc1cc[n+](CC(=O)c2cccc([N+](=O)[O-])c2)cc1`, the IC50 (Vero [3]) is reported as 6.55 µM (active).

In the case of `Cc1cc(C)c2c(O)nc(SCC(=O)c3ccc(O)c(O)c3)nc2n1`, the IC50 [4] is reported as > 100 µM (inactive) and the IC50 [5] is reported as 8.77 µM (active).

In the case of `Cc1ccccc1OCCn1c(C)nc2ccccc21`, the AC50 (INS1) is reported as 8.1 µM (active) and the EC50 [2] is reported as 1.19 µM (active).

With `CCCC1(c2ccccc2)NC(=O)N(CC(=O)Nc2ccccc2C(F)(F)F)C1=O` (centres undefined) the EC50 [6] was > 50 µM (active).

In the case of `Cc1nc2ccccc2c(=O)n1CCCO`, the AC50 (Escherichia coli) is reported as 27.2 µM (active).

For `c1ccc(CN2CCN(Cc3c[nH]c4ccccc34)CC2)cc1`, the EC50 [7] was 0.277 µM (active), the AC50 (INS1) was 8.01 µM (active) and the EC50 [2] was 5.96 µM (active). The EC50 [8] was > 30 µM (not active).

With `COc1cc(S(=O)(=O)Nc2cc(C)cc(C)c2)ccc1F` the AC50 (Escherichia coli) was 64.9 µM (active).

For `CC(=O)/C=C1/C(=O)Nc2ccccc21`, the IC50 (Vero [3]) was > 25 µM (active) and the CC50 (Vero [9]) was 21.9 µM (active).

For `Cc1cc(C)cc(NC(=O)c2cc(C)n(Cc3cccs3)c2C)c1`, the IC50 [10] was > 80 µM (inactive).

With `CC(=O)Nc1ccc(CCNC(=O)c2ccc3ccccc3c2O)cc1` the IC50 (Vero [3]) was > 25 µM (active).
